The results in this text go back to PubChem BioAssay (NCI).

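Briefly, cells in 96-well plates were exposed to five compound concentrations for 48 h, and endpoints were estimated by linear interpolation. The concentration for full growth arrest is given as TGI.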

Among the test systems are HT29 colon; MCF7 breast; HCT-15 colon; COLO 205 colon; 786-0 renal; K-562 leukemia; MDA-N; HCC-2998 colon; U251 CNS; SF-268 CNS; A498 renal.
Common to all, as to test: inhibition of tumour cell growth, NCI panel, 48 h

For `Clc1ccc(CCNCCNC2(c3cc4ccccc4s3)CCCCC2)cc1Cl`, the TGI in the assay on HT29 colon amounted to 3.59 µM; with MCF7 breast, 3.18 µM; with HCT-15 colon it was 3.61 µM; with COLO 205 colon, 2.99 µM; with 786-0 renal it was 3.65 µM; in the assay on K-562 leukemia, 4.52 µM. The TGI in the assay on MDA-N amounted to 3.33 µM; in the assay with HCC-2998 colon, 2.82 µM; in the assay with U251 CNS, 2.99 µM; with SF-268 CNS, 3.37 µM; in the assay with A498 renal, 3.17 µM.

With `CCc1c[n+]2c(cc1C1=CN3c4ccccc4[C@]45CCN6C/C(=C/CO)[C@H](C[C@H]64)[C@@H]([C@@H]1O)[C@H]35)-c1[nH]c3ccccc3c1CC2`, the TGI with HT29 colon, in the assay with MCF7 breast, in the assay with HCT-15 colon, in the assay on COLO 205 colon, in the assay with 786-0 renal and in the assay with K-562 leukemia was more than 50 µM each time. The TGI in the assay with MDA-N, in the assay with HCC-2998 colon, with U251 CNS, with SF-268 CNS and in the assay with A498 renal was more than 50 µM in each case.

Regarding `Cc1[nH]c(-c2ccccc2)c(O)c1C(=O)OC1CC(C)CCC1C(C)C` (stereo not given), the TGI in the assay with HT29 colon is 27.5 µM; in the assay on MCF7 breast it was 14.9 µM; with HCT-15 colon, 32.1 µM; in the assay on COLO 205 colon, 27.9 µM; with 786-0 renal it was 28.6 µM; in the assay on K-562 leukemia it was more than 100 µM. The TGI in the assay on MDA-N was 29.9 µM; with U251 CNS, 28.9 µM; in the assay with SF-268 CNS it was 29.4 µM; with A498 renal it was 32.7 µM.

With `O=C(O)Cn1cnc2c(=O)[nH]c(Nc3ccccc3)nc21`, the TGI in the assay with HT29 colon, in the assay on MCF7 breast, in the assay on HCT-15 colon, in the assay with COLO 205 colon, in the assay on 786-0 renal and in the assay on MDA-N was more than 100 µM in each case. The TGI in the assay on HCC-2998 colon, in the assay on U251 CNS, in the assay with SF-268 CNS and with A498 renal was more than 100 µM in each case.

Turning to `OC[C@H](O)[C@@H](OCc1ccccc1)[C@H](NCc1ccccc1)c1cccs1`, the TGI with HT29 colon, with MCF7 breast, with HCT-15 colon, in the assay with COLO 205 colon, in the assay with 786-0 renal and in the assay on K-562 leukemia was more than 100 µM each time. Moreover, the TGI in the assay on MDA-N, with U251 CNS, with SF-268 CNS and with A498 renal was more than 100 µM throughout.

Take `O=C(N/N=C/c1ccc(O)cc1)NNCCO`: the TGI in the assay with HT29 colon, in the assay with MCF7 breast, in the assay with HCT-15 colon, with COLO 205 colon, in the assay on 786-0 renal and in the assay on K-562 leukemia was more than 100 µM each time. For the same molecule, the TGI in the assay on MDA-N, in the assay on HCC-2998 colon, in the assay with U251 CNS and in the assay on A498 renal was more than 100 µM each time.

`CN1C(=O)c2c(c3c4ccccc4n(C)c3c3c2c2ccccc2n3C)C1=O`: the TGI in the assay with HT29 colon, in the assay with MCF7 breast, with HCT-15 colon, in the assay with COLO 205 colon, with 786-0 renal and in the assay on K-562 leukemia was more than 100 µM in each case. The TGI in the assay with MDA-N, in the assay on HCC-2998 colon, with U251 CNS and with A498 renal was more than 100 µM each time.

`Nc1nc(Cl)cc(OCC2(CO)CCCCC2)n1`: the TGI is more than 100 µM with HT29 colon; more than 100 µM in the assay on MCF7 breast; more than 100 µM in the assay on HCT-15 colon; more than 100 µM with 786-0 renal; more than 100 µM with MDA-N; 82.1 µM in the assay on HCC-2998 colon. Besides, the TGI in the assay on U251 CNS, in the assay on SF-268 CNS and in the assay with A498 renal was more than 100 µM throughout.

On to `C=C1C(O)C2OC(=O)C(=C)C2C(OC(=O)/C(C)=C/C)CC2(C)OC2C2OC12` (stereo not given), for which the TGI in the assay on HT29 colon is 33.7 µM; with MCF7 breast, 22.6 µM; in the assay with HCT-15 colon, 14.5 µM; in the assay on COLO 205 colon, 31.4 µM; with 786-0 renal it was 42.5 µM; with MDA-N it was 6.02 µM. Also, the TGI with HCC-2998 colon is 21.6 µM; in the assay on U251 CNS, more than 100 µM; in the assay with SF-268 CNS it was more than 100 µM; in the assay with A498 renal, 46.4 µM.

On to `CCOC(=O)C1=C(C)NC(c2ccccc2)=C(C(=O)OCc2ccccc2)C1C#Cc1ccccc1` (stereo not given), for which the TGI in the assay with MCF7 breast, in the assay on HCT-15 colon, in the assay with COLO 205 colon, with 786-0 renal, in the assay with K-562 leukemia and with MDA-N was more than 100 µM each time. Moreover, the TGI in the assay with U251 CNS, in the assay on SF-268 CNS and in the assay with A498 renal was more than 100 µM in each case.

As for `COc1ccc2nc3c(nc2c1)C(C)(C)C=C3c1ccc(Br)cc1`, the TGI with HT29 colon, with MCF7 breast, with HCT-15 colon, with COLO 205 colon, with 786-0 renal and in the assay with MDA-N was more than 100 µM throughout. Also, the TGI with HCC-2998 colon, with U251 CNS, with SF-268 CNS and with A498 renal was more than 100 µM each time.
